Measurements as given in patent publication US20080107661A1, “MUC1 and ABL” (Dana-Farber Cancer Institute, Inc., priority 2006, published 2008).

What was measured:
MUC1-C = test: Nuclear MUC1-C levels in HCT116/MUC1 cells after CDDP (immunoblot, densitometric scanning); type: cell-based, human; settings: CDDP, 0, 1, 2 and 4 hours, over untreated cells
Description: Subcellular fractionation. Nuclear fractions were prepared as described (Kharbanda et al., (1996) Cancer Res. 56:3617-3621). Cytosolic fractions were prepared as described (Hill et al., (2004) EMBO J. 23:2134-2145). Cell membrane fractions were prepared with the Plasma Membrane Extraction Kit (BioVision Research Products, Mountain View, Calif.). Mitochondria were purified as described (Ren et al., (2004) Cancer Cell 5:163-175; Ren et al., (2006) Oncogene 25:20-31). Immunoprecipitations and immunoblot analysis. Cell lysates were prepared as described (Kharbanda et al., (1995) Nature 376:785-788); Yoshida et al., (2005) Nat. Cell Biol. 7:278-285). Soluble proteins were incubated with anti-MUC1-N (Kufe et al., (1984) Hybridoma 3:223-232), anti-MUC1-C (Ab5; Neomarker, Montreal, Quebec), anti-Flag (Sigma, St. Louis, Mo.), anti-c-Abl (Ab3; Oncogene, San Diego, Calif.) or anti-14-3-3 (Abcam Inc., Cambridge, Mass.) antibodies for 2 hours at 4° C., followed by precipitation with protein G-Sepharose beads for 1 hour. […] Intensity of the signals was determined by densitometric scanning. Statistical significance was determined by the Student's t-test.

MUC1 and c-Abl = test: Co-immunoprecipitation of c-Abl with MUC1 (anti-MUC1-N precipitates) after CDDP; type: cell-based, human; settings: HCT116/MUC1 cells; CDDP, 1, 2 and 4 hours
Description: Immunoprecipitations and immunoblot analysis. Cell lysates were prepared as described (Kharbanda et al., (1995) Nature 376:785-788); Yoshida et al., (2005) Nat. Cell Biol. 7:278-285). Soluble proteins were incubated with anti-MUC1-N (Kufe et al., (1984) Hybridoma 3:223-232), anti-MUC1-C (Ab5; Neomarker, Montreal, Quebec), anti-Flag (Sigma, St. Louis, Mo.), anti-c-Abl (Ab3; Oncogene, San Diego, Calif.) or anti-14-3-3 (Abcam Inc., Cambridge, Mass.) antibodies for 2 hours at 4° C., followed by precipitation with protein G-Sepharose beads for 1 hour. Immune complexes and cell lysates (50 μg) were subjected to immunoblot analysis with anti-MUC1-N, anti-MUC1-C, anti-c-Abl (Calbiochem, San Diego, Calif.), anti-lamin B (Oncogene, San Diego, Calif.), anti-IκBα (Santa Cruz Biotechnology, Santa Cruz, Calif.), anti-GFP (BD Biosciences, San Jose, Calif.), anti-Flag (Sigma, St. Louis, […].), anti-β-actin (Sigma, St. Louis, Mo.), anti-phospho-c-Abl-[…] (Cell Signaling Technology), anti-14-3-3 (Santa Cruz Biotechnology, Santa Cruz, Calif.), anti-PKC5 (Santa Cruz Biotechnology), anti-HSP60 (BD Biosciences, San Jose, Calif.), anti-PCNA (Oncogene), or anti-calnexin (Stressgen, San Diego, Calif.) antibodies. […] Intensity of the signals was determined by densitometric scanning. Statistical significance was determined by the Student's t-test.

## [NH2][Pt]([NH2])([Cl])[Cl] [CDDP, cisplatin]
MUC1-C
  increase in nuclear MUC1-C levels: two-fold
MUC1 and c-Abl
  binding of MUC1 with c-Abl: increased binding of MUC1
